Measurements published in PubChem BioAssay AID228 (DTP/NCI, 2004).
Where “and” joins values, the source holds several entries; their conditions need not be identical. Equal values may be shown once. Records with an inconclusive call do not appear. Starred links: 1 amine or outer side, 2 acyl side, 3 side chain; linkers in the order of their positions; H or OH if unused. Positions of bridges follow the written chain, without caps; N, C: chain ends. Non-standard residues stand in square brackets, D forms with d. Residues, ends and D or L forms follow the SMILES beside them. *: point of attachment. X1 = CC(C)C(C)C(C(=O)[*:2])N(C)[*:1]; Picolinoyl(3-OH) = O=C(c1ncccc1O)*; NMePhg = CN[CH](C(=O)O)c1ccccc1; Hyp = O=C(O)[CH]1C[CH](O)CN1; Sar = CNCC(=O)O

Test system: BDF1 mice, Friend leukemia sc, tumor weight T/C
Assay: NCI In Vivo Anticancer Drug Screen. Data for tumor model Friend Virus Leukemia (Solid) (subcutaneous) in B6D2F1 (BDF1) mice
Conditions: endpoint: mean tumor weight, higher = larger tumour
Method: The antitumor activity of compounds was measured in mice bearing transplantable tumors. Survival or tumor size were measured and the results are expressed as the measurement made in the treated group (T) divided by the measurement made in the vehicle treated control group (C). The tumor model used in this assay is Friend Virus Leukemia (Solid) (subcutaneous) in B6D2F1 (BDF1) mice

[1] = dose: 31.0 mg/kg/injection, schedule: Q01DX011 (ip), vehicle: saline
[2] = dose: 62.0 mg/kg/injection, schedule: Q01DX011 (ip), vehicle: saline
[3] = dose: 125.0 mg/kg/injection, schedule: Q01DX011 (ip), vehicle: saline
[4] = dose: 12.5 mg/kg/injection, schedule: Q01DX011 (ip), vehicle: carboxymethylcellulose (CMC)
[5] = dose: 15.0 mg/kg/injection, schedule: Q01DX011 (ip), vehicle: carboxymethylcellulose (CMC)
[6] = dose: 30.0 mg/kg/injection, schedule: Q01DX011 (ip), vehicle: carboxymethylcellulose (CMC)
[7] = dose: 100.0 mg/kg/injection, schedule: Q01DX011 (ip), vehicle: carboxymethylcellulose (CMC)
[8] = dose: 22.0 mg/kg/injection, schedule: Q01DX011 (ip), vehicle: carboxymethylcellulose (CMC)
[9] = dose: 60.0 mg/kg/injection, schedule: Q01DX011 (ip), vehicle: carboxymethylcellulose (CMC)

Nc1nc(F)nc2c1ncn2C1OC(CO)C(O)C1O (stereo not given)
T/C (dose: 0.06 mg/kg/injection, schedule: Q01DX011 (ip), vehicle: saline): 155 % of control
T/C (dose: 0.12 mg/kg/injection, schedule: Q01DX011 (ip), vehicle: saline): 120 % of control
T/C (dose: 0.75 mg/kg/injection, schedule: Q01DX011 (ip), vehicle: saline): 225 % of control
T/C (dose: 1.5 mg/kg/injection, schedule: Q01DX011 (ip), vehicle: saline): 203 % of control
T/C (dose: 3.0 mg/kg/injection, schedule: Q01DX011 (ip), vehicle: saline): 199 % of control

NC(=O)/C=C\C(=O)O (tested in a mixture with another compound)
T/C (dose: 31.0 mg/kg/injection, schedule: Q#A X022 (ip), vehicle: carboxymethylcellulose (CMC)): 85 % of control
T/C (dose: 62.5 mg/kg/injection, schedule: Q#A X022 (ip), vehicle: carboxymethylcellulose (CMC)): 75 % of control
T/C (dose: 125.0 mg/kg/injection, schedule: Q#A X022 (ip), vehicle: carboxymethylcellulose (CMC)): 65 % of control
T/C (dose: 250.0 mg/kg/injection, schedule: Q#A X022 (ip), vehicle: carboxymethylcellulose (CMC)): 58 % of control

CCCCSc1ncnc2nc[nH]c12
T/C (dose: 16.0 mg/kg/injection, schedule: Q01DX011 (ip), vehicle: saline): 101 % of control
T/C [1]: 121 % of control
T/C [2]: 99 % of control
T/C [3]: 62 % of control

CSc1ncc(Br)c(Sc2nc(N)nc3nc[nH]c23)n1
T/C (dose: 3.12 mg/kg/injection, schedule: Q01DX011 (ip), vehicle: carboxymethylcellulose (CMC)): 92 % of control
T/C (dose: 6.25 mg/kg/injection, schedule: Q01DX011 (ip), vehicle: carboxymethylcellulose (CMC)): 81 % of control
T/C [4]: 51 % of control

CCN(CC)c1ccc(/C=C/c2ccnc3ccccc23)cc1
T/C (dose: 1.5 mg/kg/injection, schedule: Q01DX011 (ip), vehicle: carboxymethylcellulose (CMC)): 202 % of control
T/C (dose: 3.0 mg/kg/injection, schedule: Q01DX011 (ip), vehicle: carboxymethylcellulose (CMC)): 280 % of control
T/C (dose: 12.0 mg/kg/injection, schedule: Q01DX011 (ip), vehicle: carboxymethylcellulose (CMC)): 106 % of control

CCCCCC(=O)O[C@]1(C(C)=O)CC[C@H]2[C@@H]3CCC4=CC(=O)CC[C@]4(C)[C@H]3CC[C@@]21C
T/C (dose: 125.0 mg/kg/injection, schedule: Q01DX011 (sc), vehicle: steriod suspending solution): 173 % of control
T/C (dose: 250.0 mg/kg/injection, schedule: Q01DX011 (sc), vehicle: steriod suspending solution): 166 % of control
T/C (dose: 375.0 mg/kg/injection, schedule: Q01DX011 (sc), vehicle: steriod suspending solution): 156 % of control
T/C (dose: 750.0 mg/kg/injection, schedule: Q01DX011 (sc), vehicle: steriod suspending solution): 124 % of control

Nc1nc(N)c(N=O)c(Nc2ccc(Cl)c(Cl)c2)n1
T/C (dose: 3.75 mg/kg/injection, schedule: Q01DX011 (ip), vehicle: carboxymethylcellulose (CMC)): 153 % of control
T/C (dose: 7.5 mg/kg/injection, schedule: Q01DX011 (ip), vehicle: carboxymethylcellulose (CMC)): 69 % of control
T/C [5]: 109 % of control
T/C [6]: 91 % of control

[N-]=[N+]=[N-]
T/C (dose: 1.06 mg/kg/injection, schedule: Q01DX011 (ip), vehicle: carboxymethylcellulose (CMC)): 89 % of control
T/C (dose: 2.12 mg/kg/injection, schedule: Q01DX011 (ip), vehicle: carboxymethylcellulose (CMC)): 108 % of control
T/C (dose: 4.25 mg/kg/injection, schedule: Q01DX011 (ip), vehicle: carboxymethylcellulose (CMC)): 114 % of control
T/C (dose: 8.5 mg/kg/injection, schedule: Q01DX011 (ip), vehicle: carboxymethylcellulose (CMC)): 117 % of control

O=C(Nc1ccc(C2=NCCN2)cc1)c1ccc(C(=O)Nc2ccc(C3=NCCN3)cc2)cc1
T/C (dose: 31.25 mg/kg/injection, schedule: Q01DX011 (ip), vehicle: carboxymethylcellulose (CMC)): 94 % of control
T/C (dose: 62.5 mg/kg/injection, schedule: Q01DX011 (ip), vehicle: carboxymethylcellulose (CMC)): 89 % of control
T/C [7]: 99 % of control
T/C (dose: 125.0 mg/kg/injection, schedule: Q01DX011 (ip), vehicle: carboxymethylcellulose (CMC)): 5 % of control
T/C (dose: 187.0 mg/kg/injection, schedule: Q01DX011 (ip), vehicle: carboxymethylcellulose (CMC)): 32 % of control

NNc1nncc2ccccc12
T/C (dose: 37.5 mg/kg/injection, schedule: Q01DX011 (ip), vehicle: carboxymethylcellulose (CMC)): 108 % of control
T/C (dose: 75.0 mg/kg/injection, schedule: Q01DX011 (ip), vehicle: carboxymethylcellulose (CMC)): 66 % of control

C[C@@H]1C[C@@H]([C@H](O)CC2CC(=O)NC(=O)C2)C(=O)[C@@H](C)C1
T/C (dose: 4.3 mg/kg/injection, schedule: Q01DX011 (ip), vehicle: carboxymethylcellulose (CMC)): 80 % of control
T/C [5]: 31 % of control and 46 % of control

Nc1nc(=S)c2[nH]cnc2[nH]1
T/C (dose: 0.25 mg/kg/injection, schedule: Q01DX011 (ip), vehicle: carboxymethylcellulose (CMC)): 53 % of control and 47 % of control
T/C (dose: 0.4 mg/kg/injection, schedule: Q01DX011 (ip), vehicle: carboxymethylcellulose (CMC)): 33 % of control and 36 % of control
T/C (dose: 0.66 mg/kg/injection, schedule: Q01DX011 (ip), vehicle: carboxymethylcellulose (CMC)): 23 % of control and 26 % of control

Nc1nc(N)c2[nH]cnc2n1
T/C (dose: 11.0 mg/kg/injection, schedule: Q01DX011 (ip), vehicle: carboxymethylcellulose (CMC)): 109 % of control
T/C [8]: 92 % of control
T/C (dose: 44.0 mg/kg/injection, schedule: Q01DX011 (ip), vehicle: carboxymethylcellulose (CMC)): 87 % of control
T/C (dose: 88.0 mg/kg/injection, schedule: Q01DX011 (ip), vehicle: carboxymethylcellulose (CMC)): 66 % of control and 85 % of control

O=C1C(=O)C(Cl)=C(Cl)C(Cl)=C1Cl
T/C [5]: 108 % of control
T/C [6]: 90 % of control
T/C [9]: 89 % of control

CC(C)CC1NC(=O)C(NC(=O)c2ncccc2O)C(C)OC(=O)C(c2ccccc2)N(C)C(=O)C(C)NC(=O)C(C(C)C(C)C)N(C)C(=O)CN(C)C(=O)C2CC(O)CN2C1=O (stereo not given) ({Picolinoyl(3-OH)}-TL[Hyp][Sar][X1]A[NMePhg]; ester 1-C; configuration not given here)
T/C (dose: 25.0 mg/kg/injection, schedule: Q01DX011 (ip), vehicle: carboxymethylcellulose (CMC)): 57 % of control
T/C (dose: 50.0 mg/kg/injection, schedule: Q01DX011 (ip), vehicle: carboxymethylcellulose (CMC)): 49 % of control
T/C [7]: 64 % of control
T/C (dose: 200.0 mg/kg/injection, schedule: Q01DX011 (ip), vehicle: carboxymethylcellulose (CMC)): 39 % of control

O=C1C=CC(=Nc2ccc(O)c3ncccc23)c2cccnc21
T/C (dose: 6.0 mg/kg/injection, schedule: Q01DX011 (ip), vehicle: carboxymethylcellulose (CMC)): 71 % of control
T/C [4]: 84 % of control

CCOc1ccc(Nc2ncnc3nc[nH]c23)cc1CN(CCCl)CCCl
T/C (dose: 1.0 mg/kg/injection, schedule: Q01DX011 (ip), vehicle: saline): 101 % of control
T/C (dose: 4.0 mg/kg/injection, schedule: Q01DX011 (ip), vehicle: saline): 70 % of control

CC1CN1C(=O)c1cc(C(=O)N2CC2C)cc(C(=O)N2CC2C)c1 (stereo not given)
T/C [5]: 70 % of control
T/C [6]: 151 % of control
T/C [9]: 47 % of control

CN(C)C(=S)N=Nc1c(O)[nH]c2ccccc12
T/C (dose: 15.0 mg/kg/injection, schedule: Q01DX011 (ip), vehicle: saline): 76 % of control
T/C (dose: 30.0 mg/kg/injection, schedule: Q01DX011 (ip), vehicle: saline): 105 % of control
T/C (dose: 60.0 mg/kg/injection, schedule: Q01DX011 (ip), vehicle: saline): 85 % of control
T/C (dose: 120.0 mg/kg/injection, schedule: Q01DX011 (ip), vehicle: saline): 54 % of control

C=CCNc1ccc(C)cc1
T/C [8]: 60 % of control
T/C (dose: 45.0 mg/kg/injection, schedule: Q01DX011 (ip), vehicle: carboxymethylcellulose (CMC)): 58 % of control
T/C (dose: 90.0 mg/kg/injection, schedule: Q01DX011 (ip), vehicle: carboxymethylcellulose (CMC)): 35 % of control

CS(=O)(=O)OCC(=O)NCCNC(=O)COS(C)(=O)=O
T/C (dose: 20.0 mg/kg/injection, schedule: Q01DX011 (ip), vehicle: carboxymethylcellulose (CMC)): 93 % of control
T/C [1]: 110 % of control
T/C (dose: 40.0 mg/kg/injection, schedule: Q01DX011 (ip), vehicle: carboxymethylcellulose (CMC)): 101 % of control
T/C [2]: 108 % of control
T/C (dose: 80.0 mg/kg/injection, schedule: Q01DX011 (ip), vehicle: carboxymethylcellulose (CMC)): 52 % of control
T/C [3]: 89 % of control
T/C (dose: 250.0 mg/kg/injection, schedule: Q01DX011 (ip), vehicle: saline): 60 % of control
